# Assay results: patent publication US3954769A, “Dibenzo[b,f]thiepins” (Hoffman-La Roche Inc., priority 1973, dated 1976)
# Entries after “also recorded” stand apart in the source; their conditions may differ.
# Experiments:
# [1] = tested on: homovanillinic acid (turnover of dopamine in the basal ganglions); assay: Determination of homovanillinic acid (HVA), turnover of dopamine in brain; format: in vivo, rats; conditions: for Increase in HVA, %: rats, two hours prior to being killed, titer in untreated rats set at 100%; for activity in HVA test (in words): compared with chlorpromazine
# Method: II. Determination of Homovanillinic Acid
# Two hours prior to being killed, rats are injected with the test substance.
# Thereafter, the homovanillinic acid is extracted from the supernatant portion of a homogenous mixture of the brains into butyl acetate and later into aqueous solution and is oxidized with potassium ferric cyanide to a fluorescent dimer. […] The homovanillinic acid titer in untreated rats is arbitrarily set at 100%.
# [2] = tested on: rats; assay: Determination of cataleptic effect (undesired side effect); format: in vivo; conditions: in words
# Method: (§1) I. Determination of cataleptic effect (undesired side effect)
# (§2) A cataleptic effect ("wax-like rigidity", that is, abnormally long retention of an enforced body position) is considered to be a disturbing side effect with central depressants and neuroleptically active compounds and indicates motor disturbances. […] The following compounds were tested:
# (§3) The test animals are considered to be cataleptic when the homolateral extremities remain in the crossed position for at least 10 seconds. The number of cataleptic animals is recorded every 30 minutes over a 6-hour period. The ED50 is the dose at which 50% of the animals are cataleptic.
# [3] = tested on: mice; assay: Determination of toxicity in mice (24-hour-values); format: in vivo; conditions: in words
# Source text: (§4) III. Determination of toxicity
# [4] = Determination of toxicity in mice (24-hour-values); format: in vivo; conditions: mouse, in vivo, po, read-out: ED50 (toxicity)
# Source text: as §4
# [5] = Determination of cataleptic effect (undesired side effect); format: in vivo, rats; conditions: rat, in vivo, ip; rats, intraperitoneally; recorded every 30 minutes over a 6-hour period; read-out: ED50 (dose at which 50% of the animals are cataleptic)
# Method: as §1, §2, §3
SMILES,"Increase in HVA, % ([1]; 20 mg/kg. p.o.)",cataleptic effect (in words) [2],toxicity (in words) [3],LD50 at 24 h [4],activity in HVA test (in words) [1],"Increase in HVA, % ([1]; 50 mg/kg. p.o.)",TD50 at 6 h [5],cataleptic effect (in words) ([2]; maleate)
"CN(C)CCCN1c2ccccc2Sc2ccc(Cl)cc21 [Chlorpromazine, reference compound]",320%,does demonstrate cataleptic effects,,,,,,
"CSc1ccc2c(c1)C(N1CCN(C)CC1)Cc1cc(C)ccc1S2.O=C(O)/C=C\C(=O)O (centres unmarked) [Product B, 1-[10,11-dihydro-2-methyl-8-(methylthio)-dibenzo[b,f]thiepin-10-yl]-4-methylpiperazine maleate]",,,superior to chlorpromazine,450 mg/kg,nearly as potent as that of chlorpromazine,320%,25 mg/kg,considerably lower cataleptic effect than chlorpromazine; also recorded: superior to chlorpromazine due to the lower cataleptic side effect
"COc1ccc2c(c1)CC(N1CCN(C)CC1)c1cc(SC)ccc1S2.O=C(O)/C=C\C(=O)O (centres unmarked) [Product A, 1-[10,11-dihydro-2-methoxy-8-(methylthio)-dibenzo[b,f]thiepin-10-yl]-4-methylpiperazine maleate]",,,superior to chlorpromazine,1880 mg/kg,somewhat less active than chlorpromazine,185%,> 100 mg/kg,no cataleptic effect; also recorded: complete absence of cataleptic side effect
